Results from PubChem BioAssay (NCI).
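Growth conditions: 96-well plates. Treatment: test compound, 48 hours, 5 concentrations. Analysis: linear interpolation between bracketing concentrations; unreached endpoints set to highest concentration. TGI denotes the concentration required for complete inhibition of growth.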

Assays:
Assay in all cases: DTP human tumour cell line panel, 48 h
HCT-15 colon = test system: HCT-15 colon
DMS 114 small cell lung = test system: DMS 114 small cell lung
HOP-18 NSCLC = test system: HOP-18 NSCLC
SW-620 colon = test system: SW-620 colon
OVCAR-3 ovarian = test system: OVCAR-3 ovarian
M19-MEL melanoma = test system: M19-MEL melanoma
IGROV1 ovarian = test system: IGROV1 ovarian
A498 renal = test system: A498 renal
KM20L2 colon = test system: KM20L2 colon
OVCAR-4 ovarian = test system: OVCAR-4 ovarian
UO-31 renal = test system: UO-31 renal
SF-295 CNS = test system: SF-295 CNS
DMS 273 small cell lung = test system: DMS 273 small cell lung
SNB-78 CNS = test system: SNB-78 CNS
LXFL 529 NSCLC = test system: LXFL 529 NSCLC
DLD-1 colon = test system: DLD-1 colon
XF 498 CNS = test system: XF 498 CNS
RXF-631 renal = test system: RXF-631 renal
PC-3 prostate = test system: PC-3 prostate

Measured: TGI

Cn1ncnc1CCc1ccccc1
not listed: DLD-1 colon | XF 498 CNS | RXF-631 renal | PC-3 prostate
> 100 µM: all other assays above

CC(C)C(/C=C/c1ccc(Br)cc1)=N\NC(N)=O
66.6 µM: UO-31 renal
25.4 µM: M19-MEL melanoma
not listed: HOP-18 NSCLC | OVCAR-3 ovarian | A498 renal | RXF-631 renal | PC-3 prostate
> 100 µM: all other assays above

O=c1cc(-c2ccccc2)oc2cc(OCCSCCCCCCCCCCSCCOc3ccc4c(=O)cc(-c5ccccc5)oc4c3)ccc12
not listed: A498 renal | OVCAR-4 ovarian | DMS 273 small cell lung | XF 498 CNS | PC-3 prostate
> 100 µM: all other assays above

CC(=O)NNc1nc(C)c(C(/C=C/c2ccc(Cl)cc2)=N/NC(=O)C[N+](C)(C)C)s1
not listed: SNB-78 CNS | XF 498 CNS | RXF-631 renal | PC-3 prostate
> 100 µM: all other assays above

C=CCN(C)CN(C)c1nc(N(C)C)nc(N(C)C)n1
89 µM: LXFL 529 NSCLC
42.7 µM: DMS 114 small cell lung
not listed: XF 498 CNS | RXF-631 renal | PC-3 prostate
> 100 µM: all other assays above

COc1cc2c(cc1OC)C(=O)C(C1=C(SC(=N)N)C(=O)c3cc(OC)c(OC)cc31)C2 (centres undefined)
not listed: HOP-18 NSCLC | A498 renal | RXF-631 renal | PC-3 prostate
> 100 µM: all other assays above

CSc1nc2[nH]c(=O)c(C)nc2c(=O)[nH]1
not listed: HOP-18 NSCLC | SNB-78 CNS | RXF-631 renal | PC-3 prostate
> 100 µM: all other assays above

CC(=O)Nc1ccc(C(=O)NN2C(=O)C(Cl)C2c2ccccc2O)cc1 (centres undefined)
90.3 µM: OVCAR-3 ovarian
not listed: DMS 114 small cell lung | HOP-18 NSCLC | M19-MEL melanoma | SNB-78 CNS | RXF-631 renal | PC-3 prostate
> 100 µM: all other assays above

Cn1c2cc(O)cc(O)c2c(=O)c2c([N+](=O)[O-])cccc21
not listed: M19-MEL melanoma | XF 498 CNS | PC-3 prostate
> 100 µM: all other assays above

CCOC(=O)c1ccc(-n2c(SCC)nc3sc(C)c(C)c3c2=O)cc1
not listed: M19-MEL melanoma | LXFL 529 NSCLC | RXF-631 renal | PC-3 prostate
> 100 µM: all other assays above

O=c1cc(-c2ccc(Cl)cc2)oc2cc(OCCCOc3ccc4c(=O)cc(-c5ccc(Cl)cc5)oc4c3)ccc12
not listed: A498 renal | UO-31 renal | PC-3 prostate
> 100 µM: all other assays above

[N-]=[N+]=NC(CBr)c1cn([C@H]2C[C@H](O)[C@@H](CO)O2)c(=O)[nH]c1=O (some centres undefined)
not listed: A498 renal | OVCAR-4 ovarian | XF 498 CNS | RXF-631 renal | PC-3 prostate
> 100 µM: all other assays above

Clc1nc2n(c1/C=C/c1cccs1)CCS2
87.9 µM: OVCAR-3 ovarian
> 100 µM: PC-3 prostate | HCT-15 colon | SW-620 colon | IGROV1 ovarian | OVCAR-4 ovarian | UO-31 renal | SF-295 CNS
57.9 µM: A498 renal

C/C=C/C(=O)N1C(=O)OC[C@@H]1c1ccccc1
> 100 µM: SF-295 CNS
37.5 µM: PC-3 prostate
45.3 µM: OVCAR-4 ovarian
35.2 µM: UO-31 renal
54.6 µM: SW-620 colon
53.8 µM: HCT-15 colon
37.1 µM: IGROV1 ovarian
45.7 µM: A498 renal
33.7 µM: OVCAR-3 ovarian

COc1cc(/C=C2/C(=O)N(C(=O)c3ccc(Cl)cc3)N=C2C)cc(OC)c1OC
not listed: DMS 114 small cell lung | HOP-18 NSCLC | DMS 273 small cell lung | RXF-631 renal | PC-3 prostate
> 100 µM: all other assays above

NCCN1CC2CCC(CC2)C1
> 10 µM: PC-3 prostate | HCT-15 colon | SW-620 colon | OVCAR-3 ovarian | IGROV1 ovarian | A498 renal | OVCAR-4 ovarian | UO-31 renal | SF-295 CNS

COC(=O)[C@@]12OC[C@]34C([C@@H](O)C1O)[C@@]1(C)CC(=O)C(OC(=O)/C=C(/c5ccccc5)C(F)(F)F)=C(C)C1C[C@H]3OC(=O)[C@H](O)[C@H]42 (some centres undefined)
22.3 µM: DMS 114 small cell lung
36.6 µM: KM20L2 colon
21.2 µM: IGROV1 ovarian
28.1 µM: SF-295 CNS
31.9 µM: DLD-1 colon
33 µM: XF 498 CNS
2.26 µM: A498 renal
18 µM: DMS 273 small cell lung
not listed: SW-620 colon | OVCAR-3 ovarian | RXF-631 renal | PC-3 prostate
> 50 µM: all other assays above
